According to patent EP0385952A2, “Use of a naphthalenmethanamino derivative as antiinflammatory agent and pharmaceutical compositions containing it” (SANDOZ AG, priority 1989, dated 1990):
Marks after values point to notes of the source that are not given here.

Columns and labels:
Format in all cases: in vivo
guinea pigs = assay: UV-erythema model (2.2.); conditions: therapeutic, test concentration 5.0 %, topical, erythema score
Experimental: Female guinea pigs weighing 250-300 g are used. On the day before experiment they are shorn on both flanks followed by a final dry shaving without skin irritation two hours before UV exposure. Two circular areas (10 mm diameter) on each flank are exposed 10 seconds to ultraviolet rays from […] at an intensity of 16 mW/cm² (UVA) and 500 mW/cm² (UVB). Drugs are administered topically immediately after exposure to UV light in a volume of 50 µl of 25 % ethanol and 75 %polyethylenglycol-400 to the irradiated skin areas on the right flank. Two areas on the left flank serve as vehicle control. Erythema is assessed visually 3.5 and 5.5 hours after irradiation and results expressed in scores. Changes in erythema intensity after drug administration are expressed as percentages of the scored erythema intensity in vehicle-treated areas.

mice [1] = assay: TPA-induced pinnal swelling in mice (irritant contact dermatitis, 2.1.2.); conditions: therapeutic, topical, pinnal weight after 6 hours
Experimental: (§1) Skin irritation with arachidonic acid or cantharidin is often used to experimentally induce inflammation in order to evaluate the anti-inflammatory activity of a compound [see e.g. Inflammation 8 (1984) 134-135; 10 (1986) 205-214]. NMRI mice (8 animals per group) receive 10 µl of a 10 % solution of arachidonic acid [J.M. Young et al., J. Invest. Derm. 82 (1986) 367-371] in acetone or, respectively, 0.08 % cantharidin [K.E. Swingle et al., Arch. Int. Pharmacodyn. Ther. 254 (1981) 168-176] in acetone applied to the medial and lateral surface of the right external ear. Treatment is performed either prophylactically 30 minutes before irritation (arachidonic acid) or, respectively, either simultaneously with the application of irritant solution or therapeutically 20 minutes after irritation (cantharidin), by a single epicutaneous application of the test compound dissolved in a mixture of N,N-dimethylacetamide, acetone and alcohol (2:2:4). The evaluation of the test group is effected by comparison with a control group of animals having received on the right ear lobe only the carrier substance or the irritant solution. The animals are killed 1.5 hours (arachidonic acid) or, respectively, 17 hours (cantharidin) after application of the irritant and efficacy in assessed by determination of the differences in auricular weight. Differences in weights (D) of right (involved) and left (uninvolved) pinnae of animals treated with test compound and arachidonic acid or cantharidin (T-group) are compared with differences in mice treated with arachidonic acid only or cantharidin only (C-group). Efficacy (%) is calculated according to the equation: [formula]
(§2) This model is similar to the above (see 2.1.1.). Skin inflammation is induced with 15 µl of 0.23 % croton oil in a mixture of dimethylacetamide, acetone and ethanol (2:4:4), or with 10 µl of 0.005 % TPA [12-O-tetradecanoylphorbol-13-acetate; Sigma] prepared in acetone with 0.5 % dimethylsulfoxide. Topical treatment is performed either simultaneously with the irritation (croton oil) or 20 minutes after the application (TPA). The test compound is prepared in DAE. Efficacy is assessed 6 hours after onset of irritation by determination of the auricular weight as described above.

NMRI mice [2] = assay: Arachidonic acid-induced pinnal swelling in mice (irritant contact dermatitis, 2.1.1.); conditions: prophylactic, epicutaneous, pinnal weight
Experimental: as §1

NMRI mice [3] = assay: Cantharidin-induced pinnal swelling in mice (irritant contact dermatitis, 2.1.1.); conditions: epicutaneous, pinnal weight
Experimental: as §1

mice [4] = assay: Croton oil-induced pinnal swelling in mice (irritant contact dermatitis, 2.1.2.); conditions: simultaneous, topical, pinnal weight after 6 hours
Experimental: as §1, §2

SMILES: CCCCOc1ccc(CC(=O)NO)cc1 [Bufexamac, 2-[p-(n-butyloxy)phenyl]-acetohydroxamic acid, reference compound]
- Efficacy (%) (guinea pigs): 8%
- Efficacy (%) (mice [1]; test concentration 1.2 %): 1%
- Efficacy (%) (mice [1]; test concentration 3.6 %): 2%
- Efficacy (%) (NMRI mice [2]; test concentration 1.2 %): 35* %
- Efficacy (%) (NMRI mice [2]; test concentration 3.6 %): 22* %
- Efficacy (%) (NMRI mice [3]; simultaneous, test concentration 1.2 %): 36%
- Efficacy (%) (NMRI mice [3]; simultaneous, test concentration 3.6 %): 29%
- Efficacy (%) (NMRI mice [3]; therapeutic, test concentration 1.2 %): 22%
- Efficacy (%) (NMRI mice [3]; therapeutic, test concentration 3.6 %): 14%
- Efficacy (%) (mice [4]; test concentration 1.2 %): 11%
- Efficacy (%) (mice [4]; test concentration 3.6 %): 36** %
